From DBAASP
≈ marks a conversion by molar mass, not a printed value.

Experiments:
Test in all cases: ≥ marks a high value that may be exact or a test limit, other limits are often not marked, values filed in µg/mL are converted to µM
[1] = system: Bacillus subtilis ATCC 23857
[2] = system: Escherichia coli ATCC 25922
[3] = system: Pectobacterium carotovorum
Fusarium solani = system: Fusarium solani
[4] = system: Cryptococcus neoformans ATCC 28957
[5] = system: Staphylococcus aureus ATCC 25923
Trichoderma asperellum = system: Trichoderma asperellum
Fusarium oxysporum = system: Fusarium oxysporum
[6] = system: Pseudomonas syringae pv. tabaci
Ramulariopsis gossypii = system: Ramulariopsis gossypii
[7] = system: Xanthomonas campestris pv. citri
[8] = system: Fusarium oxysporum f.sp. vasinfectum
[9] = system: Bacillus cereus ATCC 14579
[10] = system: Pseudomonas aeruginosa ATCC 27853
[11] = system: Candida albicans ATCC 90028
Streptococcus agalactiae = system: Streptococcus agalactiae
Candida albicans = system: Candida albicans
Pseudomonas aeruginosa = system: Pseudomonas aeruginosa
Staphylococcus aureus = system: Staphylococcus aureus
[12] = system: Acinetobacter calcoaceticus
[13] = system: Staphylococcus aureus CCARM 3090
[14] = system: Pseudomonas aeruginosa 4891
[15] = system: Escherichia coli CCARM 1238
[16] = system: Staphylococcus aureus CCARM 3518
[17] = system: Bacillus subtilis KCTC 1998
[18] = system: Trichosporon beigelii KCTC 7707
[19] = system: Salmonella typhimurium KCTC 1926
[20] = system: Escherichia coli CCARM 1229
[21] = system: Listeria monocytogenes KCTC 3710
[22] = system: Candida albicans KCTC 7270
[23] = system: Pseudomonas aeruginosa 4007
Vibrio parahaemolyticus = system: Vibrio parahaemolyticus
Escherichia coli = system: Escherichia coli
Vibrio alginolyticus = system: Vibrio alginolyticus
Vibrio fluvialis = system: Vibrio fluvialis
Aeromonas hydrophila = system: Aeromonas hydrophila
Rhizoctonia solani = system: Rhizoctonia solani
[24] = system: Salmonella enterica subsp. enterica serovar Typhimurium ATCC 14028
[25] = system: Salmonella enterica subsp. enterica serovar Typhi Vi+
[26] = system: Escherichia coli ATCC 35218
[27] = system: Escherichia coli ATCC 11775

MIC [1] [µM] | MIC [2] [µM] | MIC [3] [µM] | MIC (Fusarium solani) [µM] | MIC [4] [µM] | MIC [5] [µM] | MIC (Trichoderma asperellum) [µM] | MIC (Fusarium oxysporum) [µM] | MIC [6] [µM] | MIC (Ramulariopsis gossypii) [µM] | MIC [7] [µM] | MIC [8] [µM] | MIC [9] [µM] | MIC [10] [µM] | MIC [11] [µM] | MIC (Staphylococcus aureus) [µM] | Compound | also measured
16 (≈ 36.2 µg/mL) | 64 (≈ 145 µg/mL) | ≥ 256 | ≥ 32 | 16 (≈ 36.2 µg/mL) | 16 (≈ 36.2 µg/mL) | 8 (≈ 18.1 µg/mL) | 16 (≈ 36.2 µg/mL) | 16 (≈ 36.2 µg/mL) | 4 (≈ 9.05 µg/mL) | ≥ 128 | 8 (≈ 18.1 µg/mL) | ≥ 128 | 32 (≈ 72.4 µg/mL) | 16 (≈ 36.2 µg/mL) |  | CSCC[C@H](NC(=O)[C@H](Cc1ccccc1)NC(=O)CNC(=O)[C@H](Cc1cnc[nH]1)NC(=O)[C@H](CC(C)C)NC(=O)[C@H](CO)NC(=O)CN)C(=O)N[C@@H](Cc1ccc(O)cc1)C(=O)N[C@@H](CCCCN)C(=O)N[C@@H](Cc1ccc(O)cc1)C(=O)N[C@@H](CC(C)C)C(=O)N[C@@H](CCCCN)C(=O)N[C@@H](CC(N)=O)C(=O)N[C@@H](CCSC)C(=O)N[C@H](C(=O)N[C@@H](CC(C)C)C(=O)N[C@H](C(=O)N[C@@H](CC(C)C)C(=O)N[C@@H](Cc1ccccc1)C(N)=O)[C@@H](C)O)C(C)C [GSLHGFMYKYLKNMVLTLF] | 
 | 16 (≈ 47.6 µg/mL) |  |  |  | 32 (≈ 95.2 µg/mL) |  |  |  |  |  |  |  | 16 (≈ 47.6 µg/mL) |  |  | CC[C@H](C)[C@H](NC(=O)CNC(=O)[C@H](CCC(N)=O)NC(=O)[C@H](Cc1c[nH]c2ccccc12)NC(=O)[C@@H](NC(=O)[C@H](CCCCN)NC(=O)[C@H](CCCCN)NC(=O)[C@H](CC(C)C)NC(=O)[C@H](C)NC(=O)[C@H](CC(N)=O)NC(=O)[C@H](CC(C)C)NC(=O)[C@@H](N)Cc1c[nH]c2ccccc12)C(C)C)C(=O)N[C@@H](Cc1cnc[nH]1)C(=O)N[C@@H](CCC(=O)O)C(=O)N[C@@H](C)C(=O)N[C@H](C(=O)N[C@@H](CCCCN)C(=O)N[C@@H](CC(C)C)C(=O)N[C@H](C(=O)N[C@@H](Cc1c[nH]c2ccccc12)C(=O)N[C@@H](CC(N)=O)C(=O)N[C@@H](Cc1c[nH]c2ccccc12)C(=O)N[C@H](C(=O)N[C@@H](CCC(N)=O)C(N)=O)C(C)C)[C@@H](C)CC)[C@@H](C)CC [WLNALKKVWQGIHEAIKLIWNWVQ] | MIC [13]: ≥ 32 µM; MIC [14]: ≥ 64 µM; MIC [15]: ≥ 32 µM; MIC [16]: ≥ 32 µM; MIC [17]: ≥ 32 µM; MIC [18]: ≥ 32 µM; MIC [19]: 16 µM (≈ 47.6 µg/mL); MIC [20]: ≥ 32 µM; MIC [21]: ≥ 32 µM; MIC [22]: ≥ 32 µM; MIC [23]: ≥ 64 µM
1 (≈ 2.26 µg/mL) | 4 (≈ 9.05 µg/mL) | 1 (≈ 2.26 µg/mL) | 2 (≈ 4.53 µg/mL) | 2.67 (≈ 6.04 µg/mL) | 1 (≈ 2.26 µg/mL) | 4 (≈ 9.05 µg/mL) | 4 (≈ 9.05 µg/mL) | 2 (≈ 4.53 µg/mL) | 2 (≈ 4.53 µg/mL) | 4 (≈ 9.05 µg/mL) | 1.67 (≈ 3.78 µg/mL) | 4 (≈ 9.05 µg/mL) | 32 (≈ 72.4 µg/mL) | 4 (≈ 9.05 µg/mL) |  | CSCC[C@H](NC(=O)[C@H](CCCCN)NC(=O)[C@H](Cc1ccc(O)cc1)NC(=O)[C@H](C)NC(=O)[C@H](CCC(=O)O)NC(=O)[C@H](CC(C)C)NC(=O)[C@H](CC(C)C)NC(=O)[C@H](CCCN=C(N)N)NC(=O)[C@H](CC(N)=O)NC(=O)[C@H](C)N)C(=O)N[C@@H](CC(C)C)C(=O)N[C@@H](CC(C)C)C(=O)N[C@@H](CCCCN)C(=O)N[C@@H](Cc1ccccc1)C(=O)N[C@@H](CC(C)C)C(=O)NCC(=O)N[C@@H](CC(N)=O)C(=O)N[C@@H](CC(C)C)C(=O)N[C@@H](CCCN=C(N)N)C(N)=O [ANRLLEAYKMLLKFLGNLR] | MIC (Rhizoctonia solani): 4 µM (≈ 9.05 µg/mL)

Second part, the compound before the results:

Compound | MIC [1] [µM] | MIC [2] [µM] | MIC [3] [µM] | MIC (Fusarium solani) [µM] | MIC [4] [µM] | MIC [5] [µM] | MIC (Trichoderma asperellum) [µM] | MIC (Fusarium oxysporum) [µM] | MIC [6] [µM] | MIC (Ramulariopsis gossypii) [µM] | MIC [7] [µM] | MIC [8] [µM] | MIC [9] [µM] | MIC [10] [µM] | MIC [11] [µM] | MIC (Staphylococcus aureus) [µM] | also measured
CC[C@H](C)[C@H](NC(=O)[C@H](C)NC(=O)[C@H](Cc1cnc[nH]1)NC(=O)[C@@H]1CCCN1C(=O)[C@@H](NC(=O)[C@H](CC(C)C)NC(=O)[C@H](CO)NC(=O)[C@H](CC(C)C)NC(=O)[C@@H](N)Cc1ccccc1)[C@@H](C)CC)C(=O)N[C@@H](CC(N)=O)C(=O)N[C@@H](C)C(=O)N[C@H](C(=O)N[C@@H](CO)C(=O)N[C@@H](C)C(=O)N[C@@H](CC(C)C)C(=O)N[C@@H](C)C(=O)N[C@@H](CC(N)=O)C(=O)N[C@@H](Cc1cnc[nH]1)C(=O)NCC(N)=O)C(C)C [FLSLIPHAINAVSALANHG] |  |  |  |  |  |  |  |  |  |  |  |  |  |  |  | 8.2 (≈ 15.9 µg/mL) | MIC (Streptococcus agalactiae): 4.1 µM (≈ 7.97 µg/mL); MIC (Candida albicans): 8.2 µM (≈ 15.9 µg/mL); MIC (Pseudomonas aeruginosa): 32.8 µM (≈ 63.8 µg/mL); MIC [12]: 4.1 µM (≈ 7.97 µg/mL)
CC[C@H](C)[C@H](NC(=O)[C@H](Cc1cnc[nH]1)NC(=O)[C@H](C)NC(=O)[C@@H](NC(=O)[C@H](CC(N)=O)NC(=O)[C@H](Cc1cnc[nH]1)NC(=O)[C@H](CC(C)C)NC(=O)[C@H](C)NC(=O)CNC(=O)[C@H](Cc1ccc(O)cc1)NC(=O)[C@@H](N)Cc1ccc(O)cc1)[C@@H](C)O)C(=O)N[C@H](C(=O)N[C@@H](CC(C)C)C(=O)NCC(=O)N[C@@H](CCCN=C(N)N)C(=O)O)C(C)C [YYGALHNTAHIVLGR] |  |  |  |  |  |  |  |  |  |  |  |  |  |  |  | > 148 | MIC (Vibrio parahaemolyticus): ≥ 148 µM; MIC (Escherichia coli): 74.2 µM (≈ 125 µg/mL); MIC (Vibrio alginolyticus): 9.26 µM (≈ 15.6 µg/mL); MIC (Vibrio fluvialis): ≥ 148 µM; MIC (Aeromonas hydrophila): ≥ 74.2 µM
CC[C@H](C)[C@H](NC(=O)[C@@H]1CCCN1C(=O)[C@H](CCCN=C(N)N)NC(=O)[C@@H]1CCCN1C(=O)[C@H](Cc1cnc[nH]1)NC(=O)[C@H](CO)NC(=O)[C@@H](NC(=O)[C@@H]1CCCN1C(=O)[C@H](CCCN=C(N)N)NC(=O)[C@@H]1CCCN1C(=O)[C@H](CO)NC(=O)[C@H](Cc1ccc(O)cc1)NC(=O)[C@@H]1CCCN1C(=O)[C@H](CCCCN)NC(=O)[C@@H]1CCCN1C(=O)[C@H](CCCCN)NC(=O)CN)[C@@H](C)O)C(=O)N[C@@H](CCCN=C(N)N)C(=O)N[C@H](C(=O)O)C(C)C [GKPKPYSPRPTSHPRPIRV] |  | 1.5 (≈ 3.26 µg/mL) |  |  |  |  |  |  |  |  |  |  |  |  |  |  | MIC [24]: 4 µM (≈ 8.68 µg/mL); MIC [25]: 4 µM (≈ 8.68 µg/mL); MIC [26]: 0.6 µM (≈ 1.3 µg/mL); MIC [27]: 1.1 µM (≈ 2.39 µg/mL)
